# Experiment: in vitro
# Conditions: human, hela cells, % viability
row,SMILES,"viability at 28.5 h, 10 µM"
1,O=C(CSc1nnc(-c2ccco2)c(-c2ccco2)n1)Nc1ccccc1[N+](=O)[O-] [CBK265762],107%
2,Cc1ccsc1C(=O)N1CCC(n2cc(C(C)(C)O)nn2)CC1 [CBK307069],110%
3,Cc1ccc(Nc2nccc(C3CCCN(Cc4ccc5[nH]ccc5c4)C3)n2)nc1 (centres unmarked) [CBK286122],88%
4,Cc1ccc(S(=O)(=O)N2CCN(C(=O)c3ccco3)CC2)cc1 [CBK068166],92.8%
5,S=c1[nH]nc(Nc2ccccc2)n1-c1ccccc1 [CBK026332],123%
6,Cc1cc(C)nc(Nc2nc3ccccc3[nH]2)n1 [CBK263539],102%
7,Cc1ccccc1-c1cnc(NS(C)(=O)=O)c(C(=O)N(C)C)c1 [CBK106430],103%
8,Cc1cccc(-c2nnc(-c3cccc(NC(=O)COc4ccccc4)c3)o2)c1 [CBK269659],95.8%
9,Cc1cc(C(=O)N2C[C@H]3CC[C@](O)(c4ccc(F)cc4)[C@H]3C2)on1 [CBK284354],92.4%
10,COc1ccccc1-c1ncc(OCc2ccccn2)nc1N [CBK145070],109%
11,Nc1ncc(-c2ccc(CN3CCOCC3)cc2)nc1-c1ccc(O)cc1 [CBK123798],93.9%
12,COc1ccc(-c2ccc(/C=N/NC(=O)c3ccncc3)o2)c([N+](=O)[O-])c1 [CBK262156],97.3%
13,CCOc1ccccc1CN(C)c1cc(C2CC(N)C2)nc(N)n1 (centres unmarked) [CBK307308],82.4%
14,CN1CCN(c2cnn(CCCOc3ccccc3)c(=O)c2)CC1 [CBK307203],100%
15,CCOC(=O)N1N=C(c2ccc(F)cc2)CC1(O)C(F)(F)F (centres unmarked) [CBK027156],111%
16,C(=N\Nc1nc(-c2ccccc2)cs1)/c1ccccc1 [CBK261327],101%
17,COc1ccc(CN2C(=O)CS(=O)(=O)CC2=O)cc1OC [CBK011127],86.4%
18,Nc1ncc(-c2cccc(F)c2)nc1Nc1ccc2[nH]ccc2c1 [CBK063851],95.1%
19,O=C(COc1ccc2oc3c(c2c1)CCCC3)Nc1cccc2cccnc12 [CBK266137],101%
20,O=C(CC(CN1CCN(Cc2cccc(Cl)c2)CC1)C(=O)O)Nc1cccc(O)c1 (centres unmarked) [CBK286811],88.9%
21,O=C(Cc1c(O)c2ccccc2[nH]c1=O)NCc1ccccc1Cl [CBK160320],88%
22,CCOC(=O)C1=C(C)N(CC)C(=O)NC1c1cc(OC)c(OC)c(OC)c1 (centres unmarked) [CBK091912],98.3%
23,c1cncc(-c2nccnc2NCc2ccco2)c1 [CBK037204],102%

row,SMILES,"viability at 28.5 h, 10 µM"
1,Cc1cc2ncc3c(n2n1)CC1CCC3N1Cc1ccc(C)o1 (centres unmarked) [CBK284412],88.9%
2,CCn1cc(CN2C3CCC2CC(O)(c2cccc(F)c2)C3)c(C)n1 (centres unmarked) [CBK282755],80.9%
3,COc1cc(-c2cc(Nc3ccc(N(C)C)cc3)ncn2)cc(OC)c1OC [CBK090945],38.7%
4,OCCNc1nccnc1-c1ccoc1 [CBK036580],106%
5,COc1ccc(C2(CN3CCC(NC(C)=O)CC3)CCCC2)cc1 [CBK283241],85.4%
6,N[C@H]1CC[C@H](N(CCc2ccccc2)C(=O)N[C@@H]2C[C@H]2c2ccccc2)CC1 [CBK000474C],110%
7,CN(C)c1nc(N(C)C)nc(N(C#N)S(=O)(=O)c2ccccc2Cl)n1 [CBK269036],88.3%
8,CC(CCO)CNS(=O)(=O)c1ccc(N2CCCC2=O)cc1 (centres unmarked) [CBK306358],90.5%
9,COCc1cccc(Nc2ncnc3c2cnn3CCO)c1 [CBK306214],93.2%
10,O=C(Cc1cc(C(=O)O)c2ccccc2n1)Nc1ccccc1 [CBK268227],96.3%
11,Cc1nn(C)cc1CNC(=O)c1cc2ncc(Br)cn2n1 [CBK304336],102%
12,Cn1ccnc1C1(O)CC2CCC(C1)N2C(=O)NC1CCCCC1 (centres unmarked) [CBK284049],88.5%
13,O=C(O)CC1SC(N/N=C/c2ccc(-c3ccc(Cl)cc3[N+](=O)[O-])o2)=NC1=O (centres unmarked) [CBK264507],108%
14,CCNc1ncc(C(=O)NC(CCn2ccnc2)c2ccccc2)cn1 (centres unmarked) [CBK307066],110%
15,CC(=O)c1cnc2nc(-c3cccnc3)nn2c1C [CBK287859],112%
16,NCC1CCCN1C(=O)c1ccc(Oc2cccc(Br)c2)nc1 (centres unmarked) [CBK304200],95.5%
17,Nc1nc2c(ncn2[C@@H]2O[C@H](CO)[C@H](O)C2O)c(=O)[nH]1 (some centres unmarked) [CBK201173],96%
18,O=C(NCCN1CCOCC1)c1cc(-c2ccccc2)on1 [CBK267479],89.5%
19,O=C(NCCCC1CCOC1)c1[nH]nc2c1CCCCC2 (centres unmarked) [CBK283154],88.7%
20,CCN(CC)S(=O)(=O)c1ccc(C(=O)NCc2ccc(OC)cc2)cc1 [CBK305844],71.6%
21,CN(Cc1ccc(-c2ccc(CO)cc2)nc1)C1CCN(C(=O)OC(C)(C)C)CC1 [CBK173453],81.3%
22,COC(=O)C1=C(C)N(c2ccc(C(=O)O)cc2)C(=O)NC1c1cccc(OC)c1OC (centres unmarked) [CBK295355],112%
23,CCN1CCN(c2ccc(C(=O)OC)cc2NC(=O)c2ccc(C#N)cc2F)CC1 [CBK270171],101%

row,SMILES,"viability at 28.5 h, 10 µM"
1,CC(Oc1nccnc1OCc1ccc(Cl)c(Cl)c1)c1ccncc1 (centres unmarked) [CBK161609],84.1%
2,Cc1nc2c(c(=O)[nH]1)CCN(Cc1ccc(-c3ccccc3)cc1)C2 [CBK283970],94.4%
3,CC(=O)C12c3ccccc3C(c3ccccc31)C1C(=O)N(c3ccc(Cl)c(C(=O)O)c3)C(=O)C12 (centres unmarked) [CBK263021],93.8%
4,O=C(CC1NC(=O)NC1=O)Nc1cccc2ccccc12 (centres unmarked) [CBK267164],90.3%
5,Cc1noc(C)c1CNS(=O)(=O)N1CCOC(c2ccccc2)C1 (centres unmarked) [CBK305306],83.2%
6,CCc1ccc(NC(=O)CN2CCN(c3ccccc3F)CC2)cc1 [CBK307549],112%
7,CN(C)C(=O)Cn1nc(C(c2ccccc2)c2ccccc2)oc1=O [CBK283747],92.6%
8,O=C1NC(=O)C(CC(=O)N2CCC3(CC2)CC(=O)c2cc(Cl)ccc2O3)N1 (centres unmarked) [CBK156485],107%
9,CCN1CCN(C(=O)C2CCN(S(=O)(=O)c3ccc(Br)cc3)CC2)CC1 [CBK266881],103%
10,O=C1COc2ccccc2CCCC[C@@H]2CN(C(=O)CCN3CCCC3=O)CC[C@H]2N1 [CBK292044],91.8%
11,CCc1cccc(CN2CCC(CNC(=O)Nc3ccc(Cl)cc3)CC2)c1 [CBK269151],93.4%
12,COc1ccc(N2CCN(c3nc(N4CCOCC4)nc(N4CCOCC4)n3)CC2)cc1 [CBK264166],100%
13,O=C1/C(=C\Nc2cccc3cccnc23)Sc2ccccc21 [CBK261647],93.8%
14,CCN(CC)C(=O)Cn1c(=O)n(CC)c2ncccc21 [CBK282347],107%
15,O=C(/C=C/c1ccccc1[N+](=O)[O-])NCCN1CCOCC1 [CBK265596],97.8%
16,COC1C(O)=CC(=O)OC1(CCc1ccco1)CCc1ccco1 (centres unmarked) [CBK001858],86.7%
17,Cc1n[nH]c(NN)c1Cl [CBK260876C],89.5%
18,Oc1nnc(-c2ccc(Cl)c(Cl)c2)n1C1CCCCC1 [CBK074888],97.9%
19,COc1cc(C)ccc1S(=O)(=O)n1cnc2cc(C)c(C)cc21 [CBK287580],61.3%
20,Cc1cnc2c(C(=O)N3CCCC3c3ccccn3)cnn2c1 (centres unmarked) [CBK304612],91.8%
21,Cc1cc(COc2nc3ccccc3nc2N2CCCC2)no1 [CBK115768],109%
22,N#CCCCN1CCN(c2nccnc2OCc2cccnc2)CC1 [CBK083144],96.3%
23,CC1CCN(C(=O)[C@@H]2CN(C)C[C@]23CCc2ccccc2C3=O)CC1 [CBK284589],100%

row,SMILES,"viability at 28.5 h, 10 µM"
1,O=C(Cc1cccnc1)N1CCC(c2cccc(Cc3ccc(C(F)(F)F)cc3)n2)CC1 [CBK286223],92.8%
2,COc1ccccc1CN(Cc1cccnc1)C(=O)CCN1CCCO1 [CBK306959],98.1%
3,NC(=O)c1c(NC(=O)c2nc3ccccc3s2)sc2c1CCCCC2 [CBK287566],96.5%
4,Cc1csc(C(Cc2ccsc2)NC(=O)Cn2cccn2)n1 (centres unmarked) [CBK282831],89.7%
5,O=C(C1CN(C(=O)Cn2ncc(=O)c3ccccc32)c2ccccc2O1)N1CCCCC1 (centres unmarked) [CBK297115],93.5%
6,O=C(O)c1ccc(N2C(=O)CC(N3CCN(Cc4ccccc4)CC3)C2=O)cc1 (centres unmarked) [CBK261403],94.7%
7,CC(C)(C)NC(=O)COc1ccc(CNc2nc[nH]n2)cc1 [CBK288179],89.3%
8,O=C(COc1ccc(S(=O)(=O)N2CCCCC2)cc1)N1CCC(Cc2ccccc2)CC1 [CBK268547],108%
9,C=CCNc1nc(NCCN2CCOCC2)nc(N2CCOCC2)n1 [CBK263074],112%
10,O=C(Cc1ccc([N+](=O)[O-])cc1)Nc1cc(C(=O)O)cc(C(=O)O)c1 [CBK263345],100%
11,O=C(c1ccco1)N1CCN(c2cc(-c3ccsc3)ncn2)CC1 [CBK037690],100%
12,O=C1CSC(=O)N1CNc1ccc(Br)cc1 [CBK261819],90.2%
13,CC1CCCC(C)N1CC(=O)Nc1ccccc1Oc1ccccc1 (centres unmarked) [CBK015824C],119%
14,COc1ccc(N2CCN(C(=S)c3ccc(OCC(N)=O)cc3)CC2)cc1 [CBK269190],100%
15,COc1ncc(-c2nccnc2OCC2COc3ccccc3O2)c(OC)n1 (centres unmarked) [CBK106754],102%
16,COc1cc(CN2CCN(C(=O)c3cccnc3)CC2)cc(OC)c1O [CBK265210G],85.2%
17,Cc1ccc(COC(CN2CCCCCC2)CN2CCCCCC2)cc1 [CBK278236C],100%
18,CN(Cc1ccccc1)C(=O)c1c[nH]nc1C1CCCN(Cc2cccc(Cl)c2)C1 (centres unmarked) [CBK286490],91%
19,CN(C)CCCNC(=O)c1cccc(Nc2cncc(-c3ccc(O)cc3)n2)c1 [CBK122669],87.7%
20,Cc1cc(NC(=O)c2ccc(Cl)c([N+](=O)[O-])c2)nc2c1c(=O)oc1ccccc12 [CBK291263],96.7%

# From paper PMC12040169 (PLOS Biology, 2025)
